Marks after values point to notes of the source that are not given here.
Legend:
ST3Gal-II [1] = molecular target: T1, ST3Gal-II (Rattus norvegicus, UniProt Q11205); assay: Reverse sialylation: transfer of [9-3H]NeuAc from sialylated donor to nucleotide phosphates (WGA-agarose); format: biochemical; conditions: for Incorporation of [9-3H]NeuAc expressed as percent of the CPM incorporated into 5′-CMP: nucleotide phosphate 1 mM as acceptor, donor [1]
T1 construct: purchased Calbiochem
T1 sequence (Q11205 1-350): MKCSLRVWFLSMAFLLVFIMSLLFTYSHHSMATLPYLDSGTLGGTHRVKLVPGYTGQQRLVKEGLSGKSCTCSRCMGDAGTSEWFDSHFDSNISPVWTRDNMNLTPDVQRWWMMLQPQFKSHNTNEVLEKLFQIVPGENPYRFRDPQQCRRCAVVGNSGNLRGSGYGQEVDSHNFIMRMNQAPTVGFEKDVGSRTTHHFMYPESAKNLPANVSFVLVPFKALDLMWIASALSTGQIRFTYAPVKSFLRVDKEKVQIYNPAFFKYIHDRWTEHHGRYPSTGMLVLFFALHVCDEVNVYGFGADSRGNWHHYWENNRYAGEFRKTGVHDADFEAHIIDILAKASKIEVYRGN
Procedure: FIG. 1. Nucleotide phosphates as acceptors of radioactivity from [9-^3H]NeuAcα2,3Galβ,13 (GlcNAcβ1,6)GalNAcα-O—Al (Al=Allyl) [[9-^3H] [1]] in the presence of ST3Gal-II (scheme-I). Reaction mixtures (RM) with the following composition were incubated at 37° C. for 21 hours in 100 mM NaCa Codylate buffer, pH6.0: i) RM containing 150 μM (0.4 μCi) [[9-^3H] [1]] (donor) along with 0.8 mU ST3Gal-II but no 5″-CMP; and, ii) RM containing [[9-^3H] [1]] and 1.0 mM 5′-CMP, along with ST3Gal-II. Products formed were fractionated on a WGA-agarose column. […] The feasibility of the reverse reaction is well established in literature. Schematic symbols: ♦:sialic acid, ●:Gal, □:GalNAc, ▪:GlcNAc.
All enzymatic sialylation reactions were typically carried out in 100 mM NaCa Codylate buffer pH6.0 in the presence of enzyme, synthetic acceptor (at 7.5 mM or as indicated in each experiment) and 0.2 μCi CMP-[9-^3H]NeuAc (NEN-Dupont, 29 mCi/μmol). The concentration of total CMP-NeuAc was adjusted in individual reactions by supplementing with additional cold CMP-NeuAc. Reaction volume was 20 μl. Products formed were separated using four different chromatography procedures (below). In all cases, the radioactive content of isolated products was determined by using 3a70 scintillation cocktail (Research Products International, Mount Prospect, Ill.), and a Beckman LS6500 scintillation counter.
a) Biogel P2 chromatography: A Biogel P2 column (Fine Mesh; 1.0×116.0 cm) was used with 0.1 M pyridine acetate (pH5.4) as the eluent at room temperature. […] Fractions of 1.0 ml were collected. The bound material was then eluted with 0.5M GlcNAc or 0.2M Gal in the same buffer. […] Calculation of equilibrium constant, Keq: Equilibrium constant was calculated for selected reversible bimolecular reactions that are denoted by:
Cloned and purified rat sialyltransferase α2,3(O)ST (ST3Gal-II) is used in many experiments presented in this manuscript. […] In order to determine if the sialylation reaction is reversible (FIG. 1), [9-^3H]NeuAcα2,3Galβ,13(GlcNAcβ1,6)GalNAcα-O—Al (Al=Allyl) [9-^3H[1]] was prepared using ST3Gal-II in the presence of CMP-[9-^3H]NeuAc and the trisaccharide acceptor Galβ1,3(GlcNAcβ1,6)GalNAcα-O—Al, and the radiolabeled product was isolated using Biogel P2 chromatography. […] Two different reaction mixtures were then prepared with: i) [9-^3H[1]] and ST3Gal-II but without 5″-CMP; and ii) [9-^3H[1]] and 5″-CMP along with ST3Gal-II.

ST3Gal-II [2] = molecular target: T1, ST3Gal-II; assay: Serial transfer of sialic acid from donor via 5′-CMP to acceptors (scheme-II); format: biochemical; conditions: for Incorporation of [9-3H]NeuAc from donor [3], percent of the CPM incorporated into [5]: 150 μM donor [3]
Procedure: FIG. 3. Serial transfer of sialic acid using scheme-II was followed at increasing concentrations of acceptor D-Fucβ1,3GalNAcα-O-Bn. The donor used was either: i) 0.15 mM [9-^3H]CMP-NeuAc; or, ii) 0.15 mM [9-^3H]NeuAcα2,3Galβ1,3(4-FGlcNAcβ1,6)GalNAcα-O-Bn [9-^3H [2]] in the presence of 2.0 mM 5′-CMP, or iii) [9-^3H]NeuAcα2,3Galβ1,3(6-O-SulfoGlcNAcβ1,6)GalNAcα-O—Al [[9-^3H] [4]] in the presence of 2.0 mM 5′-CMP. In runs where [9-^3H [2]] was donor since both and [2] bind C18 cartridges, control runs were performed in the absence of D-Fucβ1,3GalNAcα-O-Bn to estimate the amount of [9-^3H]CMP-NeuAc formed under the experimental conditions. 80-85% of the radioactivity was transferred to CMP-NeuAc in these runs. The amount of CMP-NeuAc remaining in runs with was then subtracted from CMP-NeuAc radioactivity in the control run to determine the amount of sialylated. To complement this run, studies were also performed with [[9-^3H] […] In these runs, the amount of sialylated was determined by measuring radioactivity retained in the C18-cartridge. a. Equilibrium constant was 5.55 when CMP-[9-^3H]NeuAc was donor. b. ˜10-fold lower acceptor concentration was required for similar extents of reaction when CMP-[9-^3H]NeuAc was donor, compared to core-2 based donors and [4].
We tested the possibility that CMP-NeuAc formed above may be available for transfer to other acceptors using ST3Gal-II (scheme-II, FIG. 3). For this, three radiolabeled donors were prepared using methods described above: two were based on the mucin Core-2 structure ([[9-^3H] [1]] and [9-^3H]NeuAcα2,3Galβ1,3(6-O-SulfoGlcNAcβ1,6)GalNAcα-O—Al [[9-^3H] [4]]) while the third was based on the Globo glycolipid ([9-^3H] [3]). The transfer of [9-^3H]NeuAc from these sialylated donors to various T-hapten (Galβ1,3GalNAcα) and mucin core2-based glycoside acceptors in the presence of 5′-CMP and ST3Gal-II was assessed (Table III). All three […] of ST3Gal-II ([1], [3] and [4]) allowed formation of CMP-[9-^3H]NeuAc, and a diverse array of products.
The transfer of [9-^3H]NeuAc from [[9-^3H][1]] to D-Fucβ1,3GalNAcα-O-Bn in the presence of 5′-CMP and ST3Gal-II increased linearly in the first two hours and it reached saturation at 4 hours (FIG. 12), and thus the data in Table III (4 hours time point) represent equilibrium conditions. […] Further, diverse sialylated products can be formed using the same synthetic sialylated donor.
In order to compare the efficiency of individual reactions of scheme II, independent runs were performed where either 0.15 mM [9-^3H]CMP-NeuAc, 0.15 mM [9-^3H] [2] or 0.15 mM [9-^3H] [4] was the donor, and [5] was the acceptor (FIG. 3). 2 mM 5′-CMP was added in runs with core-2 donors and [4], and thus reverse sialylation of these molecules was feasible. Keq for transfer of sialic acid from CMP-NeuAc to [5] was 5.55 (FIG. 3a). […] (˜6 mM) or [9-^3H[4]] (˜6 mM). Thus, while the two-step mechanism results in lower conversion than CMP-NeuAc alone, the transfer of NeuAc still takes place at an appreciable rate.

[3] = acceptor 2.5 mM, 1 mM 5′-CMP, 4 hours
[4] = acceptor 2.5 mM, 150 μM donor [4], 1 mM 5′-CMP, 4 hours
[5] = acceptor 2.5 mM, 150 μM donor [1], 1 mM 5′-CMP, 4 hours

Row | Incorporation of [9-3H]NeuAc expressed as percent of the CPM incorporated into 5′-CMP (ST3Gal-II [1]) | Incorporation of [9-3H]NeuAc from donor [3], percent of the CPM incorporated into [5] (ST3Gal-II [2]; [3]) | Incorporation of [9-3H]NeuAc from donor [4], percent of the CPM incorporated into [5] (ST3Gal-II [2]; [4]) | Incorporation of [9-3H]NeuAc from donor [1], percent of the CPM incorporated into [5] (ST3Gal-II [2]; [5]) | also measured | Compound
1 | 2.4% | – | – | – | – | Nc1ccn([C@@H]2O[C@H](CO)[C@@H](OP(=O)(O)O)[C@H]2O)c(=O)n1 [3′-CMP]
2 | 3.0% | – | – | – | – | Nc1ncnc2c1ncn2[C@@H]1O[C@H](COP(=O)(O)O)[C@@H](O)[C@H]1O [5′-AMP]
3 | 1.6% | – | – | – | – | Nc1ccn([C@@H]2O[C@H](COP(=O)(O)OP(=O)(O)OP(=O)(O)O)[C@@H](O)[C@H]2O)c(=O)n1 [5′-CTP, cytidine triphosphate]
4 | 2.3% | – | – | – | – | Nc1nc2c(ncn2[C@@H]2O[C@H](COP(=O)(O)O)[C@@H](O)[C@H]2O)c(=O)[nH]1 [5′-GMP]
5 | 1.1% | – | – | – | – | Cc1cn([C@H]2C[C@H](O)[C@@H](COP(=O)(O)O)O2)c(=O)[nH]c1=O [5′-TMP]
6 | – | 106.5% | 96.9% | – | – | CC(=O)N[C@H]1[C@H](OC[C@H]2O[C@H](OCc3ccccc3)[C@H](NC(C)=O)[C@@H](O[C@@H]3O[C@H](C)[C@H](O)[C@H](O)[C@H]3O)[C@H]2O)O[C@H](CO)[C@@H](O)[C@@H]1O [[6], D-Fucβ1,3(GlcNAcβ1,6)GalNAcα-O-Bn]
7 | – | 4.1% | 33.3% | 60.8% | – | CC(=O)N[C@H]1[C@@H](OCc2ccccc2)O[C@H](CO)[C@H](O)[C@@H]1O[C@@H]1O[C@H](CO)[C@H](F)[C@H](O)[C@H]1O [[7], 4-FGalβ1,3GalNAcα-O-Bn]
8 | – | 3.3% | 21.5% | 43.0% | – | COC[C@H]1O[C@H](OCc2ccccc2)[C@H](NC(C)=O)[C@@H](O[C@@H]2O[C@H](CO)[C@H](O)[C@H](O)[C@H]2O)[C@H]1O [[8], Galβ1,3(6-O-Me)GalNAcα-O-Bn]
9 | – | – | 10.0% | 22.4% | – | CO[C@H]1[C@@H](O)[C@@H](CO)O[C@@H](O[C@H]2[C@H](O)[C@@H](NC(C)=O)[C@H](OC[C@H]3O[C@H](OCc4ccccc4)[C@H](NC(C)=O)[C@@H](O[C@@H]4O[C@H](CO)[C@H](O)[C@H](O)[C@H]4O)[C@H]3O)O[C@@H]2CO)[C@@H]1O [[9], 3-O-MeGalβ1,4GlcNAcβ1,6(Galβ1,3)GalNAcα-O-Bn]
10 | – | 0.2% | 2.7% | 8.9% | – | CO[C@@H]1[C@H](O)[C@@H](O)[C@H](O[C@H]2[C@@H](O)[C@@H](CO)O[C@H](OCc3ccccc3)[C@@H]2NC(C)=O)O[C@@H]1CO [[11], 4-O-MeGalβ1,3GalNAcα-O-Bn]
11 | – | 0.5% | 1.9% | – | – | CC(=O)N[C@H]1[C@H](OCc2ccccc2)O[C@H](CO)[C@@H](O[C@@H]2O[C@H](CO)[C@H](O)[C@H](O)[C@H]2O)[C@@H]1O [[12], Galβ1,4GlcNAcβ-O-Bn]
12 | – | – | 0% | 1.3% | – | CO[C@@H]1[C@H](O)[C@@H](O)[C@H](O[C@H]2[C@@H](O)[C@@H](CO[C@@H]3O[C@H](CO)[C@@H](O[C@@H]4O[C@H](CO)[C@H](O)[C@H](O)[C@H]4O)[C@H](O)[C@H]3NC(C)=O)O[C@H](OCc3ccccc3)[C@@H]2NC(C)=O)O[C@@H]1CO [[13], Galβ1,4GlcNAcβ1,6(4-O-MeGalβ1,3)GalNAcα-O-Bn]
13 | – | 100.0% | 100.0% | 100.0% | Incorporation of [9-3H]NeuAc from donor [1] (ST3Gal-II [2]; [5]): (34569 CPM); Incorporation of [9-3H]NeuAc from donor [3] (ST3Gal-II [2]; acceptor 2.5 mM, 150 μM donor [3] of lower specific radioactivity, 1 mM 5′-CMP, 4 hours): (6224 CPM)***; Incorporation of [9-3H]NeuAc from donor [4] (ST3Gal-II [2]; [4]): (97675 CPM); Keq for transfer of sialic acid from CMP-NeuAc to [5] (ST3Gal-II [2]; donor 0.15 mM CMP-[9-3H]NeuAc): 5.55 | D-Fucβ1,3GalNAcα-O-Bn [[5]]
14 | – | – | – | – | transfer of radioactive [9-3H]NeuAc from donor to 5′-CMP (ST3Gal-II [1]; 150 μM donor, 1.0 mM 5′-CMP): > 90% | [9-^3H]NeuAcα2,3Galβ,13 (GlcNAcβ1,6)GalNAcα-O—Al [[1]]

From US8278072B1, “Method for synthesis of sialylated products using reversible sialylation” (Health Research, Inc., priority 2007, dated 2012)
